Results: patent publication US20240124442A1, “TRICYCLIC-AMIDO-BICYCLIC PRMT5 INHIBITORS” (AMGEN INC., priority 2021, published 2024)
Read-outs that look alike come from different tables or passages of the source.

Legend:
HCT116 MTAP null cells = assay: HCT116 MTAP null cell line proliferation / cell viability (CellTiter-Glo, 6 days); type: cell-based; conditions: HCT116 MTAP null cells, 6 days treatment, CellTiter-Glo cell viability, read-out: HCT-116 MTAP null IC50
In short: (§1)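 Isogenic HCT116 parent and MTAP-knockout cells in RPMI 1640 + 10% FBS, plated overnight, then exposed to compound for 6 days (37 °C, 5% CO2). Viability by CellTiter-Glo luminescence. Dilutions: 8–9 points from 1 or 10 μM (1:3), or 22 points from 10 or 50 μM (1:2); IC50 by 4-parameter or Hill −1 fit.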

HCT116 WT cells = assay: HCT116 WT (parent) cell line proliferation / cell viability (CellTiter-Glo, 6 days); type: cell-based; conditions: 6 days treatment
In short: as §1

Structure (SMILES)	IC50 (HCT116 MTAP null cells; 144 h) [nM]	IC50 (HCT116 WT cells; Homo sapiens, HCT-116, 144 h) [nM]	IC50 (HCT116 MTAP null cells) [nM]	IC50 (HCT116 WT cells; read-out: HCT-116 WT IC50) [nM]
CCN(C(=O)c1cc2c3c(c(N)nc2cn1)COC3)[C@@H]1COCc2cc(Br)ccc21 (single isomer, unassigned) [Example 587]	21	573	–	–
C[C@H]1OCc2c1c(N)nc1cnc(C(=O)N(C)[C@@H]3COc4cc(C(F)(F)F)ccc43)cc21 [Example 211, (3R)-4-amino-N,3-dimethyl-N-((3S)-6-(trifluoromethyl)-2,3-dihydro-1-benzofuran-3-yl)-1,3-dihydrofuro[3,4-c][1,7]-naphthyridine-8-carboxamide]	28	1460	–	–
CN(C(=O)c1cc2c(cc1F)nc(N)c1cnn(C)c12)[C@@H]1COCc2cc(S(C)(=O)=O)ccc21 (single isomer, unassigned) [Example 600]	10	226	–	–
CN(C(=O)c1cc2c3c(c(N)nc2cc1F)COC3)C1CCOc2cc(C(F)(F)F)ccc21 (racemic) [Example 272, 4-amino-7-fluoro-N-methyl-N-((4R)-7-(trifluoromethyl)-3,4-dihydro-2H-chromen-4-yl)-1,3-dihydrofuro[3,4-c]quinoline-8-carboxamide and 4-amino-7-fluoro-N-methyl-N-((4S)-7-(trifluoromethyl)-3,4-dihydro-2H-chromen-4-yl)-1,3-dihydrofuro[3,4-c]quinoline-8-carboxamide]	206	5390	–	–
CN(C(=O)c1cc2c(cc1F)nc(N)c1cnn(C)c12)[C@H]1COCc2c(F)cncc21 (single isomer, unassigned) [Example 426]	355	27900	–	–
CN(C(=O)c1ccc2nc(N)c3c(c2c1)COC3)[C@@H]1COc2cc([N+](=O)[O-])ccc21 (single isomer, unassigned) [Example 319]	–	–	48	2210
CN(C(=O)c1cc2c(cc1F)nc(N)c1cnn(C)c12)[C@@H]1COc2cc(C(F)(F)F)ncc21 (single isomer, unassigned) [Example 573]	12	685	–	–
CN(C(=O)c1ccc2nc(N)c3cnn(C)c3c2c1)[C@@H]1COc2cc(-c3cnc(=O)[nH]c3)ccc21 [Example 637, 4-amino-N,1-dimethyl-N-((3S)-6-(2-oxo-1,2-dihydro-5-pyrimidinyl)-2,3-dihydro-1-benzofuran-3-yl)-1H-pyrazolo[4,3-c]quinoline-8-carboxamide]	339	32100	–	–
CN(C(=O)c1ccc2nc(N)c3cnn(C)c3c2c1)[C@@H]1COc2cc(-c3ccc(C(F)(F)F)cn3)ccc21 [Example 652, 4-amino-N,1-dimethyl-N-((3S)-6-(5-(trifluoromethyl)-2-pyridinyl)-2,3-dihydro-1-benzofuran-3-yl)-1H-pyrazolo[4,3-c]quinoline-8-carboxamide]	6	291	–	–
C[C@H]1OCc2c1c(N)nc1ccc(C(=O)N(C)[C@@H]3COc4cc(Br)ccc43)cc21 (single isomer, unassigned) [Example 331]	26	2240	–	–
CN(C(=O)c1ccc2nc(N)c3c(c2c1)COC3)[C@@H]1COc2cc(-c3cnn(C)c3)ccc21 [Example 202, 4-amino-N-methyl-N-((3S)-6-(1-methyl-1H-pyrazol-4-yl)-2,3-dihydro-1-benzofuran-3-yl)-1,3-dihydrofuro[3,4-c]-quinoline-8-carboxamide]	83	11400	–	–
CN(C(=O)c1ccc2nc(N)c3cnn(C)c3c2c1)[C@@H]1COc2cc(-c3cccc(C(F)(F)F)n3)ccc21 [Example 648, 4-amino-N,1-dimethyl-N-((3S)-6-(6-(trifluoromethyl)-2-pyridinyl)-2,3-dihydro-1-benzofuran-3-yl)-1H-pyrazolo[4,3-c]quinoline-8-carboxamide]	30	1170	–	–
C[C@@H]1OC[C@H](N(C)C(=O)c2ccc3nc(N)c4cnn(C)c4c3c2)c2ccc(C(F)(F)F)cc21 (single isomer, unassigned) [Example 415]	78	2630	–	–
CN(C(=O)c1ccc2nc(N)c3cnn(C)c3c2c1)[C@@H]1COc2cc(-c3ccoc3)ccc21 [Example 626, 4-amino-N-((3S)-6-(3-furanyl)-2,3-dihydro-1-benzofuran-3-yl)-N,1-dimethyl-1H-pyrazolo[4,3-c]quinoline-8-carboxamide]	6	384	–	–
CN(C(=O)c1cc2c(cc1F)nc(N)c1c2cnn1C)C1COCc2cc(OC(F)(F)F)ccc21 [Example 306, 4-amino-7-fluoro-N,3-dimethyl-N-((4R)-7-(trifluoromethoxy)-3,4-dihydro-1H-2-benzopyran-4-yl)-3H-pyrazolo[3,4-c]quin-oline-8-carboxamide and 4-amino-7-fluoro-N,3-dimethyl-N-((4S)-7-(trifluoromethoxy)-3,4-dihydro-1H-2-benzopyran-4-yl)-3H-pyrazolo[3,4-c]quin-oline-8-carboxamide]	111	5060	–	–
COc1ccc2c(c1)COC[C@H]2N(C)C(=O)c1ccc2nc(N)c3cnn(C)c3c2c1 (single isomer, unassigned) [Example 408]	24	1710	–	–
CCN(C(=O)c1cc2c(cc1F)nc(N)c1cnn(C)c12)[C@@H]1COCc2nc(C(F)(F)F)ccc21 [Example 508, 4-amino-N-ethyl-7-fluoro-1-methyl-N-((5S)-2-(trifluoromethyl)-5,8-dihydro-6H-pyrano[3,4-b]pyridin-5-yl)-1H-pyrazolo[4,3-c]quinoline-8-carboxamide]	5	43	–	–
CN(C(=O)c1ccc2nc(N)c3cnn(C)c3c2c1)[C@H]1COCc2c1ccc(C(F)(F)F)c2F (single isomer, unassigned) [Example 417]	841	6100	–	–
CN(C(=O)c1ccc2nc(N)c3cnn(C)c3c2c1)[C@@H]1COc2ccccc21 [Example 673, (S)-4-amino-N-(2,3-dihydrobenzofuran-3-yl)-N,1-dimethyl-1H-pyrazolo[4,3-c]quinoline-8-carboxamide 2,2,2-trifluoroacetate]	120	13100	–	–
CN(C(=O)c1cc2c3c(c(N)nc2cc1Cl)COC3)[C@H]1COCc2nc(C#N)ccc21 (single isomer, unassigned) [Example 403]	463	25800	–	–
Nc1nc2cc(Cl)c(C(=O)N(C3CC3)[C@H]3COc4cc(C(F)(F)F)ccc43)cc2c2c1COC2 [Example 443, 4-amino-7-chloro-N-cyclopropyl-N-((3R)-6-(trifluoromethyl)-2,3-dihydro-1-benzofuran-3-yl)-1,3-dihydrofuro[3,4-c]quinoline-8-carboxamide]	433	3460	–	–
CN(C(=O)c1ccc2nc(N)c3cnn(C)c3c2c1)[C@@H]1COc2cc(-c3ccn(C)n3)ccc21 [Example 631, 4-amino-N,1-dimethyl-N-((3S)-6-(1-methyl-1H-pyrazol-3-yl)-2,3-dihydro-1-benzofuran-3-yl)-1H-pyrazolo[4,3-c]quinoline-8-carboxamide]	23	2530	–	–
CN(C(=O)c1ccc2nc(N)c3cnn(C)c3c2c1)[C@@H]1COc2cc(-c3cc(C(F)(F)F)nn3C)ccc21 [Example 654, 4-amino-N,1-dimethyl-N-((3S)-6-(1-methyl-3-(trifluoromethyl)-1H-pyrazol-5-yl)-2,3-dihydro-1-benzofuran-3-yl)-1H-pyrazolo[4,3-c]quinoline-8-carboxamide]	10	1000	–	–
CN(C(=O)c1ccc2nc(N)c3cnn(C)c3c2c1)[C@@H]1COc2cc(-c3cncc(C(F)(F)F)c3)ccc21 [Example 651, 4-amino-N,1-dimethyl-N-((3S)-6-(5-(trifluoromethyl)-3-pyridinyl)-2,3-dihydro-1-benzofuran-3-yl)-1H-pyrazolo[4,3-c]quinoline-8-carboxamide]	7	724	–	–
CC(C)S(=O)(=O)c1ccc2c(c1)OCC2N(C)C(=O)c1cc2c3c(c(N)nc2cc1F)COC3 (racemic) [Example 464, 4-amino-7-fluoro-N-methyl-N-((3R)-6-(2-propanylsulfonyl)-2,3-dihydro-1-benzofuran-3-yl)-1,3-dihydrofuro[3,4-c]quinoline-8-carboxamide and 4-amino-7-fluoro-N-methyl-N-((3S)-6-(2-propanylsulfonyl)-2,3-dihydro-1-benzofuran-3-yl)-1,3-dihydrofuro[3,4-c]quinoline-8-carboxamide]	22	1880	–	–
CN(C(=O)c1cc2c3c(c(N)nc2cc1F)COC3)[C@@H]1CCOc2cc(C(F)(F)F)ccc21 (single isomer, unassigned) [Example 401]	148	6570	–	–
Cc1nn(C)c2c1c(N)nc1cc(F)c(C(=O)N(C)[C@@H]3COc4cc(-c5cnn(C(F)(F)F)c5)ccc43)cc12 [Example 268]	47	8560	–	–
CN(C(=O)c1cc2c(cc1F)nc(N)c1cnn(C)c12)[C@H]1COc2cc(C(F)(F)F)ccc21 (single isomer, unassigned) [Example 572]	758	11400	–	–
Cc1n[nH]c2c1c(N)nc1ccc(C(=O)N(C)[C@@H]3COc4cc(C(F)(F)F)ccc43)cc12 [Example 262, 4-amino-N,3-dimethyl-N-((3S)-6-(trifluoromethyl)-2,3-dihydro-1-benzofuran-3-yl)-1H-pyrazolo[4,3-c]quinoline-8-carboxamide]	65	1950	–	–
COc1ccc2c(n1)COC[C@@H]2N(C)C(=O)c1ccc2nc(N)c3cnn(C)c3c2c1 [Example 284, 4-amino-N-((5R)-2-methoxy-5,8-dihydro-6H-pyrano[3,4-b]-pyridin-5-yl)-N,1-dimethyl-1H-pyrazolo[4,3-c]quinoline-8-carboxamide]	674	15600	–	–
